These compounds were tested against T1, PHD2 (Homo sapiens, UniProt Q9GZT9) (assay: PHD2 inhibition assay (time resolved fluorescence, HIF-1α peptide hydroxylation / VHL complex detection)). Conditions: FLAG-tagged full length PHD2; 0.2 μM 2-oxoglutarate, 0.5 μM HIF-1α peptide.
T1 construct: FLAG-tagged full length PHD2 expressed in and purified from baculovirus-infected Sf9 cells; FLAG; made in house; host or cells: baculovirus-infected Sf9 cells
Assay type: biochemical
Description: To each well of a 96-well plate was added 1 μL of test compound in DMSO and 20 μl of assay buffer (50 mM Iris pH 7.4/0.01% Tween-20/0.1 mg/ml bovine serum albumin/10 μM ferrous sulfate/1 mM sodium ascorbate/20 μg/ml catalase) containing 0.15 μg/ml FLAG-tagged full length PHD2 expressed in and purified from baculovirus-infected Sf9 cells. After a 30 min preincubation at room temperature, the enzymatic reactions were initiated by the addition of […] of substrates (final concentrations of 0.2 μM 2-oxoglutarate and 0.5 μM HIF-1α peptide biotinyl-DLDLEMLAPYIPMDDDFQL (SEQ ID NO:1)). After 2 hr at room temperature, the reactions were terminated and signals were developed by the addition of a 25 μL quench/detection mix to a final concentration of 1 mM ortho-phenanthroline, 0.1 mM EDTA, 0.5 nM anti-(His)6 LANCE reagent (Perkin-Elmer Life Sciences), 100 nM AF647-labeled streptavidin (Invitrogen), and 2 μg/ml (His)-6-VHL complex (S. Tan(2001) Protein Expr. Purif. 21, 224-234). The ratio of time resolved fluorescence signals at 665 and 620 nm was determined, and percent inhibition was calculated relative to an uninhibited control sample run in parallel.

T1 sequence (Q9GZT9 whole entry, species assumed): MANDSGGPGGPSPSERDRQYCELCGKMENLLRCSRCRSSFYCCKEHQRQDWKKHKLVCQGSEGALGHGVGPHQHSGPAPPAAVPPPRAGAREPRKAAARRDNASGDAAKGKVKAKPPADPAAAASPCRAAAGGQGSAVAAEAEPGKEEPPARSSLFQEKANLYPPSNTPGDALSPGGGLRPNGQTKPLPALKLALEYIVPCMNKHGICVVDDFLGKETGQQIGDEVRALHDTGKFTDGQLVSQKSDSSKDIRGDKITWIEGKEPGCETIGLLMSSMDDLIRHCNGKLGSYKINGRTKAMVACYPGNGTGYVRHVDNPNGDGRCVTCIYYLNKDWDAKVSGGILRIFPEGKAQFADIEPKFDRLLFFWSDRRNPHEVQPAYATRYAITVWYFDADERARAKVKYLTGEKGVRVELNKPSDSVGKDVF

Row | Structure (SMILES) | IC50
1 | O=C(Nc1cnc(-n2cccn2)nc1O)C1CCCCC1 [Compound 3-46, N-(4-hydroxy-2-(1H-pyrazol-1-yl)pyrimidin-5-yl)cyclohexanecarboxamide] | 20 to 100 nM
2 | O=C(Nc1cnc(-n2cccn2)nc1O)c1ccccc1Cl [Compound 3-1, 2-chloro-N-(4-hydroxy-2-(1H-pyrazol-1-yl)pyrimidin-5-yl)benzamide] | 0.5 to 20 nM
3 | O=C(Cc1ccc(-c2ccccc2)cc1)Nc1cnc(-n2cccn2)nc1O [Compound 3-42, 2-(biphenyl-4-yl)-N-(4-hydroxy-2-(1H-pyrazol-1-yl)pyrimidin-5-yl)acetamide] | 0.5 to 20 nM
4 | N#Cc1ccccc1C(=O)Nc1cnc(-n2cccn2)nc1O [Compound 3-7, 2-cyano-N-(4-hydroxy-2-(1H-pyrazol-1-yl)pyrimidin-5-yl)benzamide] | 100 to 10000 nM
5 | O=C(Nc1cnc(-n2cccn2)nc1O)C(c1ccccc1)c1ccccc1 [Compound 2-1, N-(4-hydroxy-2-(1H-pyrazol-1-yl)pyrimidin-5-yl)-2,2-diphenylacetamide] | 0.5 to 20 nM
6 | O=C(Cc1ccccc1Cl)Nc1cnc(-n2cccn2)nc1O [Compound 3-23, 2-(2-chlorophenyl)-N-(4-hydroxy-2-(1H-pyrazol-1-yl)pyrimidin-5-yl)acetamide] | 0.5 to 20 nM
7 | O=C(Nc1cnc(-n2cccn2)nc1O)C1(c2ccccc2)CC1 [Compound 3-38, N-(4-hydroxy-2-(1H-pyrazol-1-yl)pyrimidin-5-yl)-1-phenylcyclopropanecarboxamide] | 20 to 100 nM
8 | O=C(Cc1ccncc1)Nc1cnc(-n2cccn2)nc1O [Compound 3-41, N-(4-hydroxy-2-(1H-pyrazol-1-yl)pyrimidin-5-yl)-2-(pyridin-4-yl)acetamide] | 20 to 100 nM
9 | CS(=O)(=O)c1cccc(C(=O)Nc2cnc(-n3cccn3)nc2O)c1 [Compound 3-15, N-(4-hydroxy-2-(1H-pyrazol-1-yl)pyrimidin-5-yl)-3-(methylsulfonyl)benzamide] | 20 to 100 nM
10 | O=C(Nc1cnc(-n2cccn2)nc1O)c1cccc(Cl)c1 [Compound 3-2, 3-chloro-N-(4-hydroxy-2-(1H-pyrazol-1-yl)pyrimidin-5-yl)benzamide] | 0.5 to 20 nM
11 | O=C(Cc1cccc2ccccc12)Nc1cnc(-n2cccn2)nc1O [Compound 3-39, N-(4-hydroxy-2-(1H-pyrazol-1-yl)pyrimidin-5-yl)-2-(naphthalen-1-yl)acetamide] | 0.5 to 20 nM
12 | O=C(Cc1cccc(C(F)(F)F)c1)Nc1cnc(-n2cccn2)nc1O [Compound 3-28, 2-(3-(trifluoromethyl)phenyl)-N-(4-hydroxy-2-(1H-pyrazol-1-yl)pyrimidin-5-yl)acetamide] | 0.5 to 20 nM
13 | O=C(Nc1cnc(-n2cccn2)nc1O)C1CCc2ccccc21 (stereo not drawn) [Compound 3-53, 2,3-dihydro-N-(4-hydroxy-2-(1H-pyrazol-1-yl)pyrimidin-5-yl)-1H-indene-1-carboxamide] | 0.5 to 20 nM
14 | N#Cc1ccc(C(=O)Nc2cnc(-n3cccn3)nc2O)cc1 [Compound 3-9, 4-cyano-N-(4-hydroxy-2-(1H-pyrazol-1-yl)pyrimidin-5-yl)benzamide] | 20 to 100 nM
15 | O=C(Nc1cnc(-n2cccn2)nc1O)Oc1ccccc1 [Compound 5-9, phenyl 4-hydroxy-2-(1H-pyrazol-1-yl)pyrimidin-5-ylcarbamate] | 100 to 10000 nM
16 | CS(=O)(=O)c1ccccc1C(=O)Nc1cnc(-n2cccn2)nc1O [Compound 3-14, N-(4-hydroxy-2-(1H-pyrazol-1-yl)pyrimidin-5-yl)-2-(methylsulfonyl)benzamide] | 100 to 10000 nM
17 | O=C(Nc1cnc(-n2cccn2)nc1O)c1cccc(C(F)(F)F)c1 [Compound 3-4, 3-(trifluoromethyl)-N-(4-hydroxy-2-(1H-pyrazol-1-yl)pyrimidin-5-yl)benzamide] | 0.5 to 20 nM

Row | Structure (SMILES) | IC50
18 | O=C(Nc1cnc(-n2cccn2)nc1O)Oc1ccc(-c2ccccc2)cc1 [Compound 5-17, biphenyl-4-yl 4-hydroxy-2-(1H-pyrazol-1-yl)pyrimidin-5-ylcarbamate] | 100 to 10000 nM
19 | O=C(CC1CCCCC1)Nc1cnc(-n2cccn2)nc1O [Compound 3-48, 2-cyclohexyl-N-(4-hydroxy-2-(1H-pyrazol-1-yl)pyrimidin-5-yl)acetamide] | 0.5 to 20 nM
20 | CC(C)(C)OC(=O)N1CCC(CC(=O)Nc2cnc(-n3cccn3)nc2O)CC1 [Compound 3-50, tert-butyl4-((4-hydroxy-2-(1H-pyrazol-1-yl)pyrimidin-5-ylcarbamoyl)methyl)piperidine-1-carboxylate] | 20 to 100 nM
21 | O=C(Cc1ccc2ccccc2c1)Nc1cnc(-n2cccn2)nc1O [Compound 3-6, N-(4-hydroxy-2-(1H-pyrazol-1-yl)pyrimidin-5-yl)-2-(naphthalen-3-yl)acetamide] | 0.5 to 20 nM
22 | O=C(Nc1cnc(-n2cccn2)nc1O)c1ccc(-c2ccccc2)cc1 [Compound 3-19, N-[4-hydroxy-2-(1H-pyrazol-1-yl)pyrimidin-5-yl]biphenyl-4-carboxamide] | 0.5 to 20 nM
23 | O=C(CCc1ccccc1)Nc1cnc(-n2cccn2)nc1O [Compound 3-44, N-(4-hydroxy-2-(1H-pyrazol-1-yl)pyrimidin-5-yl)-3-phenylpropanamide] | 20 to 100 nM
24 | O=C(Nc1cnc(-n2cccn2)nc1O)Oc1ccc2ccccc2c1 [Compound 5-18, naphthalen-2-yl 4-hydroxy-2-(1H-pyrazol-1-yl)pyrimidin-5-ylcarbamate] | 100 to 10000 nM
25 | O=C(Nc1cnc(-n2cccn2)nc1O)c1ccc(Oc2ccccc2)cc1 [Compound 3-22, N-(4-hydroxy-2-(1H-pyrazol-1-yl)pyrimidin-5-yl)-4-phenoxybenzamide] | 0.5 to 20 nM
26 | COc1cccc(CC(=O)Nc2cnc(-n3cccn3)nc2O)c1 [Compound 3-31, N-(4-hydroxy-2-(1H-pyrazol-1-yl)pyrimidin-5-yl)-2-(3-methoxyphenyl)acetamide] | 0.5 to 20 nM
27 | O=C(Nc1cnc(-n2cccn2)nc1O)c1ccccc1C(F)(F)F [Compound 3-10, 2-(trifluoromethyl)-N-(4-hydroxy-2-(1H-pyrazol-1-yl)pyrimidin-5-yl)benzamide] | 0.5 to 20 nM
28 | O=C(Nc1cnc(-n2cccn2)nc1O)c1cccc(Oc2ccccc2)c1 [Compound 3-21, N-(4-hydroxy-2-(1H-pyrazol-1-yl)pyrimidin-5-yl)-3-phenoxybenzamide] | 0.5 to 20 nM
29 | CS(=O)(=O)c1ccc(C(=O)Nc2cnc(-n3cccn3)nc2O)cc1 [Compound 3-16, N-(4-hydroxy-2-(1H-pyrazol-1-yl)pyrimidin-5-yl)-4-(methylsulfonyl)benzamide] | 20 to 100 nM
30 | CCC(C(=O)Nc1cnc(-n2cccn2)nc1O)c1ccccc1 (stereo not drawn) [Compound 3-34, N-(4-hydroxy-2-(1H-pyrazol-1-yl)pyrimidin-5-yl)-2-phenylbutanamide] | 0.5 to 20 nM
31 | O=C(Nc1cnc(-n2cccn2)nc1O)c1ccc(C(F)(F)F)cc1 [Compound 3-5, 4-(trifluoromethyl)-N-(4-hydroxy-2-(1H-pyrazol-1-yl)pyrimidin-5-yl)benzamide] | 20 to 100 nM
32 | CC(C)(C)OC(=O)N1CCC(C(=O)Nc2cnc(-n3cccn3)nc2O)CC1 [Compound 3-47, tert-butyl4-(4-hydroxy-2-(1H-pyrazol-1-yl)pyrimidin-5-ylcarbamoyl)piperidine-1-carboxylate] | 0.5 to 20 nM
33 | N#Cc1cccc(C(=O)Nc2cnc(-n3cccn3)nc2O)c1 [Compound 3-8, 3-cyano-N-(4-hydroxy-2-(1H-pyrazol-1-yl)pyrimidin-5-yl)benzamide] | 20 to 100 nM

More lines, now with the values ahead:

Row | IC50 | Structure (SMILES)
34 | 100 to 10000 nM | O=C(Cc1cnc(-n2cccn2)nc1O)Nc1ccc(Cl)cc1 [Compound 12-1, N-(4-chlorophenyl)-2-(4-hydroxy-2-(1H-pyrazol-1-yl)pyrimidin-5-yl)acetamide]
35 | 0.5 to 20 nM | CC(NC(=O)Nc1cnc(-n2cccn2)nc1O)c1ccccc1 (stereo not drawn) [Compound 5-3, 1-(4-hydroxy-2-(1H-pyrazol-1-yl)pyrimidin-5-yl)-3-(1-phenylethyl)urea]
36 | 100 to 10000 nM | O=C(Nc1cnc(-n2cccn2)nc1O)NC1CCCC1 [Compound 5-5, 1-cyclopentyl-3-(4-hydroxy-2-(1H-pyrazol-1-yl)pyrimidin-5-yl)urea]
37 | 20 to 100 nM | O=C(Nc1cnc(-c2ccccn2)nc1O)C(c1ccccc1)c1ccccc1 [Compound 10-1, N-(4-hydroxy-2-(pyridin-2-yl)pyrimidin-5-yl)-2,2-diphenylacetamide]
38 | 100 to 10000 nM | Oc1nc(-n2cccn2)ncc1-c1ccccc1 [Compound 11-3, 5-phenyl-2-(1H-pyrazol-1-yl)pyrimidin-4-ol]
39 | 100 to 10000 nM | CC(C)(C)OC(=O)Nc1cnc(-n2cccn2)nc1O [Compound 5-12, tert-butyl 4-hydroxy-2-(1H-pyrazol-1-yl)pyrimidin-5-yl carbamate]
40 | 100 to 10000 nM | O=C(OC(c1ccccc1)c1ccccc1)c1cnc(-n2cccn2)nc1O [Compound 9-1, benzhydryl 4-hydroxy-2-(1H-pyrazol-1-yl)pyrimidine-5-carboxylate]
41 | 20 to 100 nM | O=C(Nc1cnc(-n2cccn2)nc1O)OC1CCCCC1 [Compound 5-10, cyclohexyl 4-hydroxy-2-(1H-pyrazol-1-yl)pyrimidin-5-ylcarbamate]
42 | 100 to 10000 nM | Oc1nc(-n2cccn2)ncc1-c1cnn(-c2ccccc2)c1 [Compound 11-1, 5-(1-phenyl-1H-pyrazol-4-yl)-2-(1H-pyrazol-1-yl)pyrimidin-4-ol]

From patent US9006433B2, “Substituted pyrimidines” (Merck Sharp & Dohme Corp., priority 2010, dated 2015)
